Test results as given in patent US12012410B2, “Substituted pyrazolo[1,5-a]pyrazines for spinal muscular atrophy” (REBORNA BIOSCIENCES, INC., priority 2018, dated 2024).

Tested on: FL-SMN mRNA (SMN transcript containing exons 7 and 8)
Experiment: Live-cell assay to measure changes in FL-SMN mRNA levels (qPCR) after exposure to the compounds
Format: cell-based, human
Settings: fibroblasts derived from patients SMA (GM03813); 24 hours incubation
Protocol: In this example, each test compound was administered to cultured cells, and changes in the expression levels of mRNA transcripts of SMN, i.e., FL-SMN containing exons 7 and 8 and Delta7 with exon 7 skipped, were examined using PCR.
Fibroblasts derived from patients SMA (GM03813) (Coriell Cell Repositories) were cultured with passages using DMEM (High Glucose) (Life Technologies) supplemented with 10% FBS (Life Technologies). Cells were seeded in tissue-culture-treated 96-well plates (Corning) at 1.5 or 0.5×10^4 cells/well in 100 μL of medium. The cells were incubated in 5% CO2 for 6 hours, and the medium was replaced with 100 μL of medium (with DMSO, 0.1% final concentration) containing each of the compounds given in the Examples. After additional incubation for 24 hours under the same conditions, the cells were washed once with D-PBS(—) (Wako) and 25 μL/well of the lysis solution (with gDNA Remove) contained in the SuperPrep (registered trademark) Cell Lysis & RT Kit for qPCR (Toyobo life science) was added according to the manufacturer's instructions so that the cells were lysed and the genomic DNA was degraded. Furthermore, 5 μL of the STOP solution (with RNase Inhibitor) contained in the kit was added to provide RNA-containing solutions. Six microliters of the RNA-containing solutions were each mixed with 14 μL of a reverse transcription solution containing transcriptase together with dNTP, random primers and an oligodT primer. Reverse transcription was performed at 37° C. (15 min), 50° C. (5 min), and 98° C. (5 min), to give total cDNAs. The total cDNAs were diluted 30-fold with Ultra-pure water (Invitrogen) to measure the expression levels of FL-SMN, delta7, and GAPDH. For quantitative PCR (qPCR), a PCR solution was prepared according to the instructions of the manufacturer of the THUNDERBIRD (registered trademark) Probe qPCR Mix (Toyobo life science). Five microliters of the diluted total cDNA solutions and oligo DNA standard solutions, each containing either 001-Standard FL-SMN (SEQ ID NO. 1) or 002-Standard delta7 (SEQ ID NO. 2), were each mixed with 10 μL of each of the PCR solutions containing a qPCR probe, primers, and PCR enzyme. […] The oligoDNA standard solutions were prepared as those containing either of 5×10^8, 5×10^7, 5×10^6, 5×10^5, 5×10^4, 5×10^3, 5×10^2, 5×10, 5, or 0 copies. For the oligo DNA standards, primers, and probes, oligonucleotides synthesized by Integrated DNA Technologies, Inc. (IDT) were used. […] FIGS. 3B and 3D show their detection mechanisms. The final concentrations of the primers and probes added were 0.4 μM and 0.15 μM, respectively. The qPCR was performed using the following conditions on a ViiA7 instrument (Applied Biosystems): first stage: 95° C. (1 min)→second stage: 95° C. (15 sec)→third stage: 60° C. (1 min)→40 repeated cycles of the second and third stages. The GAPDH mRNA was used as the internal control, and the commercially available 20×gene expression PCR assay (Life Technologies, 4326317E, Hs99999905_ml) and Standard GAPDH (SEQ ID NO. 7) (see FIG. 1) was used to determine the number of copies of this gene. The measurement values obtained for the samples to be measured were standardized against the respective value obtained for GAPDH.
Using the above-mentioned assays, the activities of the compounds of the Examples were evaluated. Specifically, the percentages of the FL-SMN and delta7 values obtained using DMSO without the compounds and standardized against GAPDH were set as 100% and those of the FL-SMN and delta7 values obtained at the time of administration of the compounds and standardized against GAPDH were calculated. […]

SMILES | Percentage of increase (FL-SMN mRNA standardized against GAPDH, DMSO control set as 100%)
Cc1cn2cc(-c3cc4c(=O)[nH]c(C5(F)CCN(C)CC5)nc4cn3)cc(F)c2n1 [Example 108, 2-(4-fluoro-1-methylpiperidin-4-yl)-6-(8-fluoro-2-methylimidazo[1,2-a]pyridin-6-yl)pyrido[3,4-d]pyrimidin-4(3H)-one] | ** (equal to or higher than 120% but lower than 150%)
Cc1cn2cc(-c3cc(C)c4nc(C5(F)CCN(C6CC6)CC5)[nH]c(=O)c4c3)cnc2n1 [Example 103, 2-(1-cyclopropyl-4-fluoropiperidin-4-yl)-6-(2-methylimidazo[1,2-a]pyrimidin-6-yl)-8-methylquinazolin-4(3H4)-one] | ** (equal to or higher than 120% but lower than 150%)
Cc1cn2cc(-c3ccc4nc(C5(F)CCN(C)CC5)[nH]c(=O)c4c3)ccc2n1 [Example 37, 2-(4-fluoro-1-methylpiperidin-4-yl)-6-(2-methylimidazo[1,2-a]pyridin-6-yl)quinazolin-4(3H)-one] | *** (equal to or higher than 150% but lower than 180%)
Cc1nc2c(F)cc(-c3cc(F)c4nc(C5CCN(C6CC6)CC5)[nH]c(=O)c4c3)cc2o1 [Example 28, 2-(1-cyclopropylpiperidin-4-yl)-8-fluoro-6-(4-fluoro-2-methyl-1,3-benzoxazol-6-yl)quinazolin-4(3H)-one] | **** (equal to or higher than 180%)
Cc1cn2cc(-c3cc4c(=O)[nH]c(C5CCN(C)CC5)nc4cc3C)ccc2n1 [Example 62, 7-methyl-6-(2-methylimidazo[1,2-a]pyridin-6-yl)-2-(1-methylpiperidin-4-yl)quinazolin-4(3H)-one] | * (equal to or higher than 100% but lower than 120%)
Cc1cn2nc(-c3nc4ccc(N5CCN6CCCCC6C5)cc4c(=O)[nH]3)cc2c(C)n1 (centres unmarked) [Example 125, 2-(4,6-dimethylpyrazolo[1,5-a]pyrazin-2-yl)-6-(octahydro-2H-pyrido[1,2-a]pyrazin-2-yl)quinazolin-4(3H)-one (distomer)] | ** (equal to or higher than 120% but lower than 150%)
Cc1cn2cc(-c3cc4c(=O)[nH]c(C5(F)CCN(C6CC6)CC5)nc4cn3)cc(F)c2n1 [Example 104, 2-(1-cyclopropyl-4-fluoropiperidin-4-yl)-6-(8-fluoro-2-methylimidazo[1,2-a]pyridin-6-yl)pyrido[3,4-d]pyrimidin-4(3H)-one] | *** (equal to or higher than 150% but lower than 180%)
Cc1nc(C)c2cc(-c3nc4ccc(N5CCN(C)CC5)cc4c(=O)[nH]3)nn2c1C [Example 54, 6-(4-methylpiperazin-1 - yl)-2-(4,6,7-trimethylpyrazolo[1,5-a]pyrazin-2-yl)quinazolin-4(3H)-one] | * (equal to or higher than 100% but lower than 120%)
Cc1cn2cc(-c3ccc4nc(C5CCN(C)CC5)[nH]c(=O)c4c3)cc(C)c2n1 [Example 23, 6-(2,8-dimethylimidazo[1,2-a]pyridine-6-yl)-2-(1-methylpiperidin-4-yl) kinazoline-4 (3H)—one] | *** (equal to or higher than 150% but lower than 180%)
Cc1nc2c(F)cc(-c3cc4c(=O)[nH]c(C5CCN(C6CC6)CC5)nc4cn3)cc2o1 [Example 115, 2-(1-cyclopropylpiperidin-4-yl)-6-(4-fluoro-2-methyl-1,3-benzoxazol-6-yl)pyrido[3,4-d]pyrimidin-4(3H)-one] | **** (equal to or higher than 180%)
COCCN1CCC(F)(c2nc3ccc(-c4cc(F)c5nc(C)cn5c4)cc3c(=O)[nH]2)CC1 [Example 110, 2-[4-fluoro-1-(2-methoxyethyl)piperidin-4-yl]-6-(8-fluoro-2-methylimidazo[1,2-a]pyridin-6-yl)quinazolin-4(3H)-one] | ** (equal to or higher than 120% but lower than 150%)
Cc1nc2cc(-c3ccc4nc(C5CCN(C)CC5)[nH]c(=O)c4c3)ccc2o1 [Example 72, 6-(2-methyl-1,3-benzoxazol-5-yl)-2-(1-methylpiperidin-4-yl)quinazolin-4(3H)-one] | * (equal to or higher than 100% but lower than 120%)
CCN1CCC(F)(c2nc3c(F)cc(-c4cc(F)c5nc(C)cn5c4)cc3c(=O)[nH]2)CC1 [Example 98, 2-(1-ethyl-4-fluoropiperidin-4-yl)-8-fluoro-6-(8-fluoro-2-methylimidazo[1,2-a]pyridin-6-yl)quinazolin-4(3H)-one] | **** (equal to or higher than 180%)
Cc1nc2ccc(-c3ccc4nc(C5CCN(C)CC5)[nH]c(=O)c4c3)cn2c1C [Example 67, 6-(2,3-dimethylimidazo[1,2-a]pyridin-6-yl)-2-(1-methylpiperidin-4-yl)quinazolin-4(3H)-one] | ** (equal to or higher than 120% but lower than 150%)
Cc1cn2cc(-c3ccc4c(c3)c(=O)nc(C3CCN(C)CC3)n4C)ccc2n1 [Example 70, 1-methyl-6-(2-methylimidazo[1,2-a]pyridin-6-yl)-2-(1-methylpiperidin-4-yl)quinazolin-4(1H)-one] | * (equal to or higher than 100% but lower than 120%)
COc1cnc(-c2nc3ccc(N4CCN(C)CC4)cc3c(=O)[nH]2)cc1C [Example 76, 2-(5-methoxy-4-methylpyridin-2-yl)-6-(4-methylpiperazin-1-yl)quinazolin-4(3H)-one] | * (equal to or higher than 100% but lower than 120%)
Cc1nn(C)c2cc(F)c(-c3nc4ccc(N5CCN(C)CC5)cc4c(=O)[nH]3)cc12 [Example 59, 2-(6-fluoro-1,3-dimethyl-1H-indazol-5-yl)-6-(4-methylpiperazin-1-yl)quinazolin-4(3H)-one] | * (equal to or higher than 100% but lower than 120%)
Cc1cn2cc(-c3cc(C)c4nc(C5(F)CCN(C)CC5)[nH]c(=O)c4c3)cc(F)c2n1 [Example 89, 6-(8-fluoro-2-methylimidazo[1,2-a]pyridin-6-yl)-2-(4-fluoro-1-methylpiperidin-4-yl)-8-methylquinazolin-4(3H4)-one] | **** (equal to or higher than 180%)
Cc1cn2nc(-c3nc4ccc(N5CCN(C(C)C)CC5)cc4c(=O)[nH]3)cc2c(C)n1 [Example 119, 2-(4,6-dimethylpyrazolo[1,5-a]pyrazin-2-yl)-6-(4-isopropylpiperazin-1-yl)quinazolin-4(3H)-one bistrifluoroacetate] | **** (equal to or higher than 180%)
CCc1nc(C)cn2nc(-c3nc4ccc(N5CCN(C)CC5)cc4c(=O)[nH]3)cc12 [Example 5, 2-(4-Ethyl-6-methylpyrazolo[1,5-α]pyrazin-2-yl)-6-(4-methylpiperazin-1-yl)quinazolin-4(3H)-one] | *** (equal to or higher than 150% but lower than 180%)
